Laboratory results: ChEMBL document CHEMBL3108744, “Heronamides D-F, polyketide macrolactams from the deep-sea-derived Streptomyces sp. SCSIO 03032” (J Nat Prod, 2014)
Activity calls are given as the source filed them. The rule behind the calls is not given here.

Legend:
SF-268 = test: Cytotoxicity against human SF268 cells by SRB assay; assay type: functional, cell-based
MCF7 = test: Cytotoxicity against human MCF7 cells by SRB assay; assay type: functional, cell-based
Bacillus thuringiensis = test: Antibacterial activity against Bacillus thuringiensis SCSIO BT01 assessed as growth inhibition by broth microdilution method; assay type: functional
Candida albicans = test: Antifungal activity against Candida albicans ATCC 10231 assessed as growth inhibition by broth microdilution method; assay type: functional
Escherichia coli = test: Antibacterial activity against Escherichia coli ATCC 25922 assessed as growth inhibition by broth microdilution method; assay type: functional
Staphylococcus aureus = test: Antibacterial activity against Staphylococcus aureus ATCC 29213 assessed as growth inhibition by broth microdilution method; assay type: functional
NCI-H460 = test: Cytotoxicity against human NCI-H460 cells by SRB assay; assay type: functional, cell-based
Bacillus subtilis = test: Antibacterial activity against Bacillus subtilis SCSIO BS01 assessed as growth inhibition by broth microdilution method; assay type: functional
[1] = test system: Radical scavenging activity; test: Antioxidant activity of the compound assessed as DPPH radical scavenging activity after 30 mins by spectrophotometric analysis; assay type: functional
HUVEC [2] = test: Antimigratory activity in HUVEC at 11.8 uM up to 72 hrs by scratch wound healing assay relative to DMSO-treated control; assay type: functional, cell-based; conditions: Homo sapiens
HUVEC [3] = test: Antimigratory activity in HUVEC at 17.1 uM up to 72 hrs by scratch wound healing assay relative to DMSO-treated control; assay type: functional, cell-based; conditions: Homo sapiens

Row | Compound | IC50 (SF-268) | IC50 (MCF7) | MIC (Bacillus thuringiensis) | MIC (Candida albicans) | MIC (Escherichia coli) | MIC (Staphylococcus aureus) | IC50 (NCI-H460) | MIC (Bacillus subtilis) | Activity [1] | Activity (HUVEC [2]) | Activity (HUVEC [3])
1 | C/C=C/C=C/C[C@@H]1C[C@@H]2/C=C/C(C)=C/[C@H]3C=C[C@@H](O)[C@@H](O)[C@@H]3/C(C)=C/C=C/[C@H]2C(=O)N1 | > 100 µM | > 100 µM | > 128 µg/mL | > 128 µg/mL | > 128 µg/mL | > 128 µg/mL | > 100 µM | > 128 µg/mL | inactive |  | 
2 | C/C=C/C=C/C[C@@H]1C/C=C/C=C(C)/C=C/C=C\[C@@H](OC(C)=O)[C@@H](OC(C)=O)/C=C(C)/C=C/C=C/C(=O)N1 | 23.3 µM | 15.4 µM | > 128 µg/mL | > 128 µg/mL | > 128 µg/mL | > 128 µg/mL | 56.4 µM | > 128 µg/mL |  |  | 
3 | C/C=C/C=C/C[C@@H]1C/C=C/C=C(C)/C=C/C=C\[C@@H](O)[C@@H](O)/C=C(C)/C=C/C=C/C(=O)N1 | > 100 µM | > 100 µM | > 128 µg/mL | > 128 µg/mL | > 128 µg/mL | > 128 µg/mL | > 100 µM | > 128 µg/mL | inactive | inactive | 
4 | C/C=C/C=C/C[C@@H]1C[C@H](O)[C@H]2[C@@H]3/C(C)=C/[C@H]4C=C[C@@H](O)[C@@H](O)[C@@H]4/C(C)=C/C=C\[C@@H]3C(=O)N12 | > 100 µM | > 100 µM | > 128 µg/mL | > 128 µg/mL | > 128 µg/mL | > 128 µg/mL | > 100 µM | > 128 µg/mL | inactive |  | inactive
